Source: US20230192700A1, “PYRAZOLOPYRAZINES ACTING ON CANCERS VIA INHIBITION OF CDK12” (Bayer Aktiengesellschaft, priority 2020, published 2023)

What was measured:
CDK12 = target: T1, CDK12 (Homo sapiens, UniProt Q9NYV4); assay: CDK12 nuclear protein level: immunofluorescence/high content analysis in CAL-120 cells; type: cell-based; conditions: for DC50: CAL-120 cells, 24 h, nuclear CDK12 staining intensity, median, read-out: CDK12 degradation IF DC50 - [mol/l] (median); for (IC50 CDK12 high ATP) to (Degradation DC50 CDK12) ratio: ratio of IC50 CDK12 hATP (2 mM ATP) to DC50 CDK12 (IF, CAL-120)
T1 construct: endogenous in cells; host or cells: CAL-120 human breast cancer cells (DSMZ ACC 459)
T1 sequence (Q9NYV4 whole entry): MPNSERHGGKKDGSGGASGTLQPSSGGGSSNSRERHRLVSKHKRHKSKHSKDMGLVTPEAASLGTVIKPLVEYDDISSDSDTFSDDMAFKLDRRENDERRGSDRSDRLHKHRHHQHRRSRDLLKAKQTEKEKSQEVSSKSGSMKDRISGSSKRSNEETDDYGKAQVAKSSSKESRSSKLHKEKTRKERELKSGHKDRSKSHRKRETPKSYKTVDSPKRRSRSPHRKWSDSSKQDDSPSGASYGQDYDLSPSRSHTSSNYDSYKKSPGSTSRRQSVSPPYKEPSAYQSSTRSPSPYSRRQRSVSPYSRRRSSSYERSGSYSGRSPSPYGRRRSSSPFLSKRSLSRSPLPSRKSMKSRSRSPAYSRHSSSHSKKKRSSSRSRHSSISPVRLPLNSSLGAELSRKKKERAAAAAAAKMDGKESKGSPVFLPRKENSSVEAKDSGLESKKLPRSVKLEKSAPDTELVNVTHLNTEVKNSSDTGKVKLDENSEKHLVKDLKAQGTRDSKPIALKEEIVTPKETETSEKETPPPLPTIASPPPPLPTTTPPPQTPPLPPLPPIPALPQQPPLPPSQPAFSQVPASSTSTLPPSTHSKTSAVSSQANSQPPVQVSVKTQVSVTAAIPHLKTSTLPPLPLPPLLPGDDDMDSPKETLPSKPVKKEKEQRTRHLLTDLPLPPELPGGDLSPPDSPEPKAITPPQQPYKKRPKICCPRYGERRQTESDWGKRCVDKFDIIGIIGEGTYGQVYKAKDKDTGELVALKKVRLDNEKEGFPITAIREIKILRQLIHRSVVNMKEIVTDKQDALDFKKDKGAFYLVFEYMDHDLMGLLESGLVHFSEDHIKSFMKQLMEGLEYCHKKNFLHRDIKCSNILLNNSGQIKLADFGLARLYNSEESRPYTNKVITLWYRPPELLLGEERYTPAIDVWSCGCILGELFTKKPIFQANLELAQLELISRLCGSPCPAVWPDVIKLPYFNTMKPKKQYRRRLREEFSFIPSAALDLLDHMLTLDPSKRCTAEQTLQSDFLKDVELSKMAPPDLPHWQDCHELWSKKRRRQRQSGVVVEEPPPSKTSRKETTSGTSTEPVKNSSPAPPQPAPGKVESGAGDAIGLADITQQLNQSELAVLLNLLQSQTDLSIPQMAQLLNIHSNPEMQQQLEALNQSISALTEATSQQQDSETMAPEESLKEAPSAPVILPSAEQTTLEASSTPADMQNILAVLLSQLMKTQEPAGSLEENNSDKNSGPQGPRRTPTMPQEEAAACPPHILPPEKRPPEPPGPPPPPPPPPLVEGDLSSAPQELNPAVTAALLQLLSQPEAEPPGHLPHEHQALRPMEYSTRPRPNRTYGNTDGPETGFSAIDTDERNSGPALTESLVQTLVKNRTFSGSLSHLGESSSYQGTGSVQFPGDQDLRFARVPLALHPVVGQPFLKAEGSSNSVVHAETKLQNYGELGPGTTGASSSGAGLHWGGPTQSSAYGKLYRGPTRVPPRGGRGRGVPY
T1 sequence (O75909 whole entry partner): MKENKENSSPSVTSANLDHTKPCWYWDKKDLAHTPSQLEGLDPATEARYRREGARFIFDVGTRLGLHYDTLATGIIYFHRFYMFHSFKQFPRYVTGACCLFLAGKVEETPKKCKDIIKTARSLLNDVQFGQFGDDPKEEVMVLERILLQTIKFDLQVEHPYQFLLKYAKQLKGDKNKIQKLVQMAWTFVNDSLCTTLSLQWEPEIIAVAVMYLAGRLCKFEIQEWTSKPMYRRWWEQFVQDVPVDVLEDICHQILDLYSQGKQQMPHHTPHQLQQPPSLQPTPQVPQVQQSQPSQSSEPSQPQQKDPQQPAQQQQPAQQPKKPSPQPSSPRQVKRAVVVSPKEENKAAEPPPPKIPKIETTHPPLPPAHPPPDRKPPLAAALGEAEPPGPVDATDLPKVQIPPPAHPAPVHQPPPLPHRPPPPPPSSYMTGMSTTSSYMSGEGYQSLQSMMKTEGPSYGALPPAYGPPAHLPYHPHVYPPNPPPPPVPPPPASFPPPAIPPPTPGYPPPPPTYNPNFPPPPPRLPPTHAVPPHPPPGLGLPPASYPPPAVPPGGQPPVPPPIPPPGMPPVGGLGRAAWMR
Protocol: 6. CDK12 Nuclear Protein Level: Immunofluorescence/High Content Analysis
In the context of the present invention, the term “DC50 CDK12” refers to the DC50 values obtained according to the assay described in this section (6) herein below, i.e. the DC50 values for the degradation of CDK12.:
CAL-120 human breast cancer cells (DSMZ ACC 459) are seeded in 1536-well microtiter plates (800 cells per well) containing 50 nanoL of compounds in Dose-Response. Control wells received DMSO or Reference Example 1. Plates are then incubated for 24 h at 37° C. in an humidified incubator and fixed with 4% PFA for 10 min. Then immunofluorescence (IF) against CDK12 (CellSignalling CDK12 Antibody #11973, rabbit, 1:100 dilution) is performed using standard IF protocols. Cells are then stained with Hoechst 33342 (Life Technologies, H-1399, 0.1 microg/mL) and imaged on an automated confocal microscopy system (e.g. Perkin Elmer Opera Phenix). Nuclear and cytoplasmic intensity as well as the nuclear/cytoplasmic intensity ratio is determined by automated image analysis using custom generated scripts (MetaXpress). Data is then transferred to Genedata Screener software, normalized to DMSO and control and DC50 values (degrading concentration to achieve 50% reduction of nuclear CDK12 staining intensity relative to controls) are reported.

CDK2/CyclinE = target: T2, CDK2/CyclinE (Homo sapiens, UniProt P24941); assay: CDK2/CycE kinase assay (TR-FRET); type: biochemical; conditions: 2 mM ATP (high ATP); median; read-out: CDK2/CyclinE, 2 mM ATP (high ATP) IC50 - [mol/l] (median)
T2 construct: GST; purchased ProQinase GmbH (Freiburg, Germany); host or cells: insect cells (Sf9)
Excerpt: 2.4 CDK2/CycE Kinase Assay
CDK2/CycE-inhibitory activity of compounds of the present invention was quantified employing the CDK2/CycE TR-FRET assay as described in the following paragraphs.
Recombinant fusion proteins of GST and human CDK2 and of GST and human CycE, expressed in insect cells (Sf9) and purified by Glutathion-Sepharose affinity chromatography, were purchased from ProQinase GmbH (Freiburg, Germany). As substrate for the kinase reaction biotinylated peptide biotin-Ttds-YISPLKSPYKISEG (C-terminus in amid form) was used which can be purchased e.g. form the company JERINI peptide technologies (Berlin, Germany).
For the assay 50 nanoL of a 100 fold concentrated solution of the test compound in DMSO was pipetted into a black low volume 384 well microtiter plate or a black 1536 well microtiter plate (both Greiner Bio-One, Frickenhausen, Germany), 2 microL of a solution of CDK2/CycE in aqueous assay buffer [50 millimol/L Tris/HCl pH 8.0, 10 millimol/L MgCl2, 1.0 millimol/L dithiothreitol, 0.1 millimol/L sodium ortho-vanadate, 0.01% (v/v) Nonidet-P40 (Sigma)] were added and the mixture was incubated for 15 min at 22° C. to allow pre-binding of the test compounds to the enzyme before the start of the kinase reaction. Then the kinase reaction was started by the addition of 3 microL of a solution of adenosine-tri-phosphate (ATP, 3.33 millimol/L=>final conc. in the 5 microL assay volume is 2 millimol/L) and substrate (1.25 micromol/L=>final conc. in the 5 microL assay volume is 0.75 micromol/L) in assay buffer and the resulting mixture was incubated for a reaction time of 25 min at 22° C. The concentration of CDK2/CycE was adjusted depending of the activity of the enzyme lot and was chosen appropriate to have the assay in the linear range, typical concentrations were in the range of 10 ng/mL. The reaction was stopped by the addition of 3 microL of a solution of TR-FRET detection reagents (0.333 micromol/L streptavidine-XL665 [Cisbio Bioassays, Codolet, France] and 1.67 nanomol/L anti-RB(pSer807/pSer811)-antibody from BD Pharmingen [#558389] and 2 nanomol/L LANCE EU-W1024 labeled anti-mouse IgG antibody [Perkin-Elmer, product no. AD0077, as an alternative a Terbium-cryptate-labeled anti-mouse IgG antibody from Cisbio Bioassays can be used]) in an aqueous EDTA-solution (167 millimol/L EDTA, 0.2% (w/v) bovine serum albumin in 100 millimol/L HEPES pH 7.5).
The resulting mixture was incubated 1 h at 22° C. to allow the formation of complex between the phosphorylated biotinylated peptide and the detection reagents. Subsequently the amount of phosphorylated substrate was evaluated by measurement of the resonance energy transfer from the Eu-chelate to the streptavidine-XL. Therefore, the fluorescence emissions at 620 nm and 665 nm after excitation at 350 nm was measured in a TR-FRET reader, e.g. a Pherastar (BMG Labtechnologies, Offenburg, Germany) or a Viewlux (Perkin-Elmer). The ratio of the emissions at 665 nm and at […] was taken as the measure for the amount of phosphorylated substrate. The data were normalised (enzyme reaction without inhibitor=0% inhibition, all other assay components but no enzyme=100% inhibition).

Row | SMILES | DC50 (CDK12) | (IC50 CDK12 high ATP) to (Degradation DC50 CDK12) ratio (CDK12) | IC50 (CDK2/CyclinE)
1 | CC(C)n1nc(NCc2nc3ccccc3[nH]2)c2ncc(C3CC3)nc21 [Example 14, N-[(1H-benzimidazol-2-yl)methyl]-6-cyclopropyl-1-(propan-2-yl)-1H-pyrazolo[3,4-b]pyrazin-3-amine] | 49.6 nM | >403 | > 20000 nM
2 | O[C@H]1C[C@@H](n2nc(NCc3nc4ccccc4[nH]3)c3ncc(C4CC4)nc32)C1 [Example 40, cis-3-(3-{[(1H-benzimidazol-2-yl)methyl]amino}-6-cyclopropyl-1H-pyrazolo[3,4-b]pyrazin-1-yl)cyclobutan-1-ol] | 2.55 nM | >7840 | > 20000 nM
3 | COCCC(C)n1nc(NCc2nc3ccccc3[nH]2)c2ncc(C3CC3)nc21 (single isomer, unassigned; (+)) [Example 59, (+)-N-[(1H-benzimidazol-2-yl)methyl]-6-cyclopropyl-1-[4-methoxybutan-2-yl]-1H-pyrazolo[3,4-b]pyrazin-3-amine] | 32.4 nM | >618 | > 20000 nM
4 | CN1CCC(n2nc(NCc3nc4cc(Cl)c(Cl)cc4[nH]3)c3ncc(C4CC4)nc32)CC1 [Example 19, 6-cyclopropyl-N-[(5,6-dichloro-1H-benzimidazol-2-yl)methyl]-1-(1-methylpiperidin-4-yl)-1H-pyrazolo[3,4-b]pyrazin-3-amine] | 4.66 nM | >4294 | > 20000 nM
5 | c1ccc2[nH]c(CNc3nn(C4C[C@H]5CC[C@@H](C4)O5)c4nc(C5CC5)cnc34)nc2c1 (stereo partly drawn) [Example 45, exo/endo-N-[(1H-benzimidazol-2-yl)methyl]-6-cyclopropyl-1-(8-oxabicyclo[3.2.1]octan-3-yl)-1H-pyrazolo[3,4-b]pyrazin-3-amine] | 8.11 nM | – | > 18200 nM
6 | CC(CCN(C)C)n1nc(NCc2nc3ccccc3[nH]2)c2ncc(C3CC3)nc21 (single isomer, unassigned) [Example 63, (+) or (−)-N-[(1H-benzimidazol-2-yl)methyl]-6-cyclopropyl-1-[4-(dimethylamino)butan-2-yl]-1H-pyrazolo[3,4-b]pyrazin-3-amine] | 912 nM | >22 | > 20000 nM
7 | O[C@H]1C[C@@H](Cn2nc(NCc3nc4ccccc4[nH]3)c3ncc(C4CC4)nc32)C1 [Example 71, cis-3-[(3-{[(1H-benzimidazol-2-yl)methyl]amino}-6-cyclopropyl-1H-pyrazolo[3,4-b]pyrazin-1-yl)methyl]cyclobutan-1-ol] | 27.7 nM | – | > 20000 nM
8 | c1ccc2[nH]c(CNc3nn(CC4CCC4)c4nc(C5CC5)cnc34)nc2c1 [Example 75, N-[(1H-benzimidazol-2-yl)methyl]-1-(cyclobutylmethyl)-6-cyclopropyl-1H-pyrazolo[3,4-b]pyrazin-3-amine] | 135 nM | >148 | > 20000 nM
9 | CC(CCN(C)C)n1nc(NCc2nc3ccccc3[nH]2)c2ncc(C3CC3)nc21 (racemic) [Example 62, (±)-N-[(1H-benzimidazol-2-yl)methyl]-6-cyclopropyl-1-[4-(dimethylamino)butan-2-yl]-1H-pyrazolo[3,4-b]pyrazin-3-amine] | 676 nM | – | > 20000 nM
10 | OC1(Cn2nc(NCc3nc4ccccc4[nH]3)c3ncc(C4CC4)nc32)CCCC1 [Example 73, 1-[(3-{[(1H-benzimidazol-2-yl)methyl]amino}-6-cyclopropyl-1H-pyrazolo[3,4-b]pyrazin-1-yl)methyl]cyclopentan-1-ol] | 112 nM | >90 | > 20000 nM

The remaining lines, values ahead:

Row | DC50 (CDK12) | (IC50 CDK12 high ATP) to (Degradation DC50 CDK12) ratio (CDK12) | IC50 (CDK2/CyclinE) | SMILES
11 | 13.1 nM | >1526 | > 20000 nM | Cc1ccc2[nH]c(CNc3nn(C4CCN(C)CC4)c4nc(C5CC5)cnc34)nc2c1 [Example 6, 6-cyclopropyl-N-[(5-methyl-1H-benzimidazol-2-yl)methyl]-1-(1-methylpiperidin-4-yl)-1H-pyrazolo[3,4-b]pyrazin-3-amine]
12 | 3.15 nM | – | > 20000 nM | O[C@H]1CC[C@H](n2nc(NCc3nc4ccccc4[nH]3)c3ncc(C4CC4)nc32)CC1 [Example 50, trans-4-(3-{[(1H-benzimidazol-2-yl)methyl]amino}-6-cyclopropyl-1H-pyrazolo[3,4-b]pyrazin-1-yl)cyclohexan-1-ol]
13 | 32 nM | – | > 20000 nM | Fc1ccc2[nH]c(CNc3nn(C4CCOCC4)c4nc(C5CC5)cnc34)nc2c1 [Example 53, 6-cyclopropyl-N-[(5-fluoro-1H-benzimidazol-2-yl)methyl]-1-(oxan-4-yl)-1H-pyrazolo[3,4-b]pyrazin-3-amine]
14 | 8.43 nM | 2193 | > 20000 nM | CN1CCC(n2nc(NCc3nc4cc(C(F)(F)F)ccc4[nH]3)c3ncc(C4CC4)nc32)CC1 [Example 25, 6-cyclopropyl-1-(1-methylpiperidin-4-yl)-N-{[5-(trifluoromethyl)-1H-benzimidazol-2-yl]methyl}-1H-pyrazolo[3,4-b]pyrazin-3-amine]
15 | 17.5 nM | >1145 | > 20000 nM | CN1CCC(n2nc(NCc3nc4cc(Cl)c(F)cc4[nH]3)c3ncc(C4CC4)nc32)CC1 [Example 29, N-[(5-chloro-6-fluoro-1H-benzimidazol-2-yl)methyl]-6-cyclopropyl-1-(1-methylpiperidin-4-yl)-1H-pyrazolo[3,4-b]pyrazin-3-amine]
16 | 14.4 nM | >1388 | > 20000 nM | CN1CCC(n2nc(NCc3nc4c(Cl)c(F)ccc4[nH]3)c3ncc(C4CC4)nc32)CC1 [Example 31, N-[(4-chloro-5-fluoro-1H-benzimidazol-2-yl)methyl]-6-cyclopropyl-1-(1-methylpiperidin-4-yl)-1H-pyrazolo[3,4-b]pyrazin-3-amine]
17 | 11.5 nM | – | > 20000 nM | Fc1ccc2[nH]c(CNc3nn(C4CCOCC4)c4nc(C5CC5)cnc34)nc2c1F [Example 32, 6-cyclopropyl-N-[(4,5-difluoro-1H-benzimidazol-2-yl)methyl]-1-(oxan-4-yl)-1H-pyrazolo[3,4-b]pyrazin-3-amine]
18 | 6.09 nM | >3284 | > 20000 nM | COc1cccc2[nH]c(CNc3nn(C4CCN(C)CC4)c4nc(C5CC5)cnc34)nc12 [Example 2, 6-cyclopropyl-N-[(4-methoxy-1H-benzimidazol-2-yl)methyl]-1-(1-methylpiperidin-4-yl)-1H-pyrazolo[3,4-b]pyrazin-3-amine]
